ChEMBL document CHEMBL1201862, “PubChem BioAssay data set” (2004)
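In this assay, cells in 96-well plates receive the compound at five concentrations for 48 hours. Endpoints are linearly interpolated between the surrounding concentrations. At the GI50, growth is halved.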 Calls of active or inactive are those of the source. Cut-off read from the data, not from the text of the source: active = GI50 up to about 1.1 µM and inactive = higher.

Legend:
Experiment in all cases: DTP human tumour cell line panel, 48 h
HL-60 = tested on: HL-60
MCF7 = tested on: MCF7
SF-539 = tested on: SF-539
OVCAR-8 = tested on: OVCAR-8
SNB-19 = tested on: SNB-19
MOLT-4 = tested on: MOLT-4
HOP-62 = tested on: HOP-62
PC-3 = tested on: PC-3
TK-10 = tested on: TK-10
SF-268 = tested on: SF-268
SK-MEL-5 = tested on: SK-MEL-5
SK-MEL-28 = tested on: SK-MEL-28
SF-295 = tested on: SF-295
BT-549 = tested on: BT-549
RXF 393 = tested on: RXF 393
EKVX = tested on: EKVX
NCI-H460 = tested on: NCI-H460
SNB-75 = tested on: SNB-75
MDA-MB-231 = tested on: MDA-MB-231
HCT-15 = tested on: HCT-15

SMILES | GI50 (HL-60) | GI50 (MCF7) | GI50 (SF-539) | GI50 (OVCAR-8) | GI50 (SNB-19) | GI50 (MOLT-4) | GI50 (HOP-62) | GI50 (PC-3) | GI50 (TK-10) | GI50 (SF-268) | GI50 (SK-MEL-5) | GI50 (SK-MEL-28) | GI50 (SF-295) | GI50 (BT-549) | GI50 (RXF 393) | GI50 (EKVX) | GI50 (NCI-H460) | GI50 (SNB-75) | GI50 (MDA-MB-231) | GI50 (HCT-15) [µM]
COc1cc(-c2[o+]c3cc(O)cc(O)c3cc2O)cc(O)c1O | > 100 µM (inactive) | 21.3 µM (inactive) | > 100 µM (inactive) | > 100 µM (inactive) | > 100 µM (inactive) | > 100 µM (inactive) | > 100 µM (inactive) | > 100 µM (inactive) | > 100 µM (inactive) | > 100 µM (inactive) | > 100 µM (inactive) | > 100 µM (inactive) | > 100 µM (inactive) | > 100 µM (inactive) | > 100 µM (inactive) | 92.9 µM (inactive) | > 100 µM (inactive) | > 100 µM (inactive) | > 100 µM (inactive) | > 100
CCCCCCNCCCNc1c2cc(OC)ccc2nc2cccc([N+](=O)[O-])c12 | 0.214 µM (active) | 0.212 µM (active) | 0.29 µM (active) |  | 0.369 µM (active) | 0.112 µM (active) | 0.0908 µM (active) | 0.144 µM (active) | 0.131 µM (active) | 0.0731 µM (active) | < 0.0385 µM (active) | 0.208 µM (active) | 0.0865 µM (active) | 0.809 µM (active) | 0.0245 µM (active) | 0.0986 µM (active) | 0.0336 µM (active) | 0.298 µM (active) | 0.055 µM (active) | 0.198
COc1ccc(/C=C2\CCC(CN3CCOCC3)C2=O)cc1 (stereo unspecified) | 0.762 µM (active) | 2.38 µM (inactive) | 5.92 µM (inactive) | 2.74 µM (inactive) | 11.4 µM (inactive) | 1.83 µM (inactive) | 10.5 µM (inactive) | 3.15 µM (inactive) | 3.57 µM (inactive) | 6.76 µM (inactive) | 4.62 µM (inactive) | 3.06 µM (inactive) | 17.2 µM (inactive) | 2.25 µM (inactive) | 0.942 µM (active) | 7.57 µM (inactive) | 17.8 µM (inactive) | 4.68 µM (inactive) | 2.08 µM (inactive) | 2.39
O=c1c2c3c(sc2nc2n1N=C(c1ccc(Cl)cc1)CS2)CCCC3 | > 100 µM (inactive) | > 100 µM (inactive) | > 100 µM (inactive) | > 100 µM (inactive) |  | > 100 µM (inactive) | > 100 µM (inactive) | > 100 µM (inactive) | > 100 µM (inactive) | > 100 µM (inactive) | > 100 µM (inactive) | > 100 µM (inactive) | > 100 µM (inactive) | > 100 µM (inactive) | > 100 µM (inactive) | > 100 µM (inactive) | > 100 µM (inactive) | > 100 µM (inactive) | > 100 µM (inactive) | > 100
O=C1/C(=C/c2ccc(Cl)cc2)CSc2ccccc21 | 17.9 µM (inactive) | 2.26 µM (inactive) | 17.8 µM (inactive) | 20.5 µM (inactive) | 9.2 µM (inactive) | 5.55 µM (inactive) | 20.5 µM (inactive) | 14.1 µM (inactive) | 42.2 µM (inactive) | 22.5 µM (inactive) | 20.6 µM (inactive) | 23.1 µM (inactive) |  | 27 µM (inactive) | 18.2 µM (inactive) |  | 28.7 µM (inactive) | 31.9 µM (inactive) | 19 µM (inactive) | 4.62
O=P(c1ccccc1)(c1ccccc1)N1O[C@@H](c2ccccc2)C=C[C@H]1c1ccccc1 | 5.24 µM (inactive) | 3.4 µM (inactive) | 16.2 µM (inactive) | 12.8 µM (inactive) | 14.8 µM (inactive) | 5.32 µM (inactive) | 13.1 µM (inactive) | 2.96 µM (inactive) | 14 µM (inactive) | 12.4 µM (inactive) | 11.4 µM (inactive) | 17.3 µM (inactive) | 11.6 µM (inactive) | 17.5 µM (inactive) | 10 µM (inactive) | 10.4 µM (inactive) | 5.53 µM (inactive) | 13.3 µM (inactive) | 8.24 µM (inactive) | 10
O=C1CCCC2=C1CC1=C(CCCC1=O)N2c1ccc(Cl)cc1 | 28.1 µM (inactive) | > 100 µM (inactive) | > 100 µM (inactive) | 97.1 µM (inactive) | > 100 µM (inactive) | 94.6 µM (inactive) | > 100 µM (inactive) | > 100 µM (inactive) | > 100 µM (inactive) | > 100 µM (inactive) | > 100 µM (inactive) | > 100 µM (inactive) | > 100 µM (inactive) | > 100 µM (inactive) | > 100 µM (inactive) | > 100 µM (inactive) | > 100 µM (inactive) | > 100 µM (inactive) | > 100 µM (inactive) | > 100
